Key:
human CYP11B1 = human CYP11B1 (Homo sapiens (Human), UniProt P15538); experiment: Inhibitory activity against hCYP11B1 in G-402 CYP11B1 high expression stable transformants (cortisol HTRF); type: cell-based; details: G-402 CYP11B1 cells, 0.2 μM 11-deoxycortisol, 16 hours; read-out: hCYP11B1 Abs IC50
Description: (§1) 1. Experimental System: G-402 CYP11B2 or CYP11B1 High Expression Stable Transformants
(§2) The above-mentioned high-expression stable transformants were constructed based on human […] cell line G-402. The artificial lentiviruses were introduced into human CYP11B2 (NM_000498.3) and CYP11B1 (NM_000497.4), respectively.
(§3) Maintenance medium: McCoy's 5A (modified, #16600082, GIBCO)+10% FBS (GIBCO)+1 μg/mL puromycin (A1113803, GIBCO).
(§4) Resuscitation and seeding medium: McCoy's 5A (modified, #16600082, GIBCO)+10% FBS (GIBCO).
(§5) Reaction medium: DMEM/F12 (#11320033, GIBCO)+2.5% activated charcoal filtered FBS (S11695, R & D).
(§6) Seeding: Cells were cultured to a suitable state after resuscitation with maintenance medium, and 96-well flat plates were seeded with seeding medium according to 1×10^4/100 μL/well (unified cell volume).
(§7) Changing solution: The supernatant was aspirated and discarded after seeding overnight (>12 hours) and adherence. 100-150 μL/well serum-free medium was added, and after being aspirated. After aspiration, 50 μL/well reaction medium was added for later use.
(§8) Formulation: Compound was diluted with reaction medium containing 0.4 μM substrate (final experimental concentration is 0.2 μM):
CYP11B1 substrate: 11-deoxycortisol (11-deoxycortisol, S4775, selleckchem). The final reaction concentration was 0.2 μM.
(§9) Loading: The above compound dilutions were added to the cell plates at 50 μL/well. The background and control wells were set.
(§10) Treating and sampling: The cell plates were incubated in a cell incubator for 16 hours after loading, and then each cell plate was centrifuged at 450 g for 2 min. 75 μL supernatant was transferred to a collection plate and frozen at −80° C. for future use (or direct detection).
(§11) Detection: Homogeneous time-resolved fluorescence kit (Cisbio HTRF kit, Cat.64ALDPEG, Cat.62CRTPEG) was used to determine the concentration of aldosterone or cortisol in the supernatant.
(§12) Analysis: The absolute IC50 (Abs IC50) for each compound was calculated using a four parameter fit.

human CYP11B2 = human CYP11B2 (Homo sapiens (Human), UniProt P19099); experiment: Inhibitory activity against hCYP11B2 in G-402 CYP11B2 high expression stable transformants (aldosterone HTRF); type: cell-based; details: for IC50: G-402 CYP11B2 cells, 0.2 μM 11-deoxycorticosterone, 16 hours, read-out: hCYP11B2 (AS) Abs IC50; for hCYP11B ½ Selectivity Fold: hCYP11B1 IC50 relative to hCYP11B2 IC50; for selectivity (in words): hCYP11B2 versus hCYP11B1, compared with reference Baxdrostat
Description: as §1, §2, §3, §4, §5, §6, §7, §8
CYP11B2 substrate: 11-deoxycorticosterone (11-deoxycorticosterone, S4243, selleckchem). The final reaction concentration was 0.2 μM
as §9, §10, §11, §12

CYP2D6 = CYP2D6 (Homo sapiens (Human), UniProt P10635); experiment: In vitro inhibitory activity against common CYP450 enzymes: CYP2D6; type: in vitro ADME; details: microsomes, substrate Dextromethorphan
Description: (§13) A working solution of the test compound was prepared in a solvent of dimethyl sulfoxide (DMSO) (starting at a final concentration of 50 μM, 3-fold dilution of 7 concentration points). The corresponding microsomes (CORNING, Cat No.452117) and the corresponding substrate solution were prepared (components were shown in Table 2). The working solution of the test compound and the corresponding microsomes were mixed with the corresponding substrate solution and the HLM working solution. The mixture was preheated in a 37.0° C. water bath for 10 min. NADPH cofactor (BONTAC, Cat No.BT04) was added. The resultant mixture was incubated for 10 min in a 37.0° C. water bath. The reaction was terminated by adding cold stop solution. [table] [table] The sample was centrifuged at 4000 rpm for 20 min to precipitate protein and the supernatant was transferred to HPLC water and shaken for 10 min.

aldosterone synthesis = experiment: Pharmacodynamic test in cynomolgus monkeys with ACTH stimulation: aldosterone in plasma; type: in vivo, cynomolgus monkeys (Macaca fascicularis); details: 0.05 mg/kg oral
Description: (§14) Adult cynomolgus monkeys (Macaca fascicularis) with suitable body weight and age were selected. 1 male and 1 female cynomolgus monkeys were used for experiment. The adaptation period was 1 week. On the day of the experiment, monkeys were individually housed in stainless steel mesh cages for testing.
(§15) Oral treatment and ACTH working solution (working solution diluted to the desired concentration in PBS sterile solution by ultrapure water filtration through a 0.22 μm filter using Tetracosactrin (HY-P0060, MCE)) were administered as follows: • T=0, 2 monkeys in each group were orally administered 0.5 mg/kg (compound was suspended in 5% aqueous sodium hydroxymethylcellulose solution as vehicle) in a fixed volume of 2 mL/kg; • T=+1 hour (i.e., 1 hour after administration), 14.5 μg/kg of the aforementioned ACTH working solution was injected intramuscularly.
(§16) Sampling test: Blood samples (collected in EDTA anticoagulant tubes) were collected before oral administration (Pre-dose) and 0.5 h, 1 h, 2 h, 4 h, 6 h and 12 h after administration for cortisol concentration measurement in plasma. The blood was centrifuged at 10000 rpm for 15 minutes at 4° C., followed by separation of the plasma and uniform storage at −80° C. for further analysis using an Roche biochemical analyzer to detect aldosterone and cortisol in plasma, and a portion of the plasma (0.5 h, 1 h, 2 h, 4 h, 6 h, and 12 h after administration, and an additional blood collection after 24 h) was taken simultaneously to determine the pharmacokinetic parameters by LC/MS.
(§17) The above experiment was repeated except that: T=0, two monkeys in each group were orally administered at a dose of 0.05 mg/kg (compound was suspended in 5% aqueous sodium hydroxymethylcellulose as vehicle) in a fixed volume of 2 mL/kg.

CYP3A = CYP3A (Homo sapiens, UniProt P08684); experiment: In vitro inhibitory activity against common CYP450 enzymes: CYP3A (midazolam); type: in vitro ADME; details: human, human liver microsomes, probe Midazolam, substrate Midazolam
Description: as §13

CYP1A2 = CYP1A2 (Homo sapiens (Human), UniProt P05177); experiment: In vitro inhibitory activity against common CYP450 enzymes: CYP1A2; type: in vitro ADME; details: human, microsomes, 10 min
Description: as §13

[1] = Pharmacokinetic test in cynomolgus monkeys (LC/MS); type: in vivo, cynomolgus monkeys (Macaca fascicularis); details: for Cmax / Tmax / half-life / AUC(0-t): both sexes, cynomolgus monkey, plasma, 0.05 mg/kg, 0.05mpk oral; for AUC(0-t): read-out: AUC0-24 h
Description: as §14, §15, §16, §17

CYP2C9 = CYP2C9 (Homo sapiens (Human), UniProt P11712); experiment: In vitro inhibitory activity against common CYP450 enzymes: CYP2C9; type: in vitro ADME; details: microsomes, substrate Diclofenac
Description: as §13

CYP2C19 = CYP2C19 (Homo sapiens (Human), UniProt P33261); experiment: In vitro inhibitory activity against common CYP450 enzymes: CYP2C19; type: in vitro ADME; details: microsomes, substrate (S)-(+)-Mephenytoin
Description: as §13

cortisol levels = experiment: Pharmacodynamic test in cynomolgus monkeys with ACTH stimulation: cortisol in plasma; type: in vivo, cynomolgus monkeys (Macaca fascicularis); details: 0.05 mg/kg oral
Description: as §14, §15, §16, §17

human CYP11B2, sequence (P19099 25-503): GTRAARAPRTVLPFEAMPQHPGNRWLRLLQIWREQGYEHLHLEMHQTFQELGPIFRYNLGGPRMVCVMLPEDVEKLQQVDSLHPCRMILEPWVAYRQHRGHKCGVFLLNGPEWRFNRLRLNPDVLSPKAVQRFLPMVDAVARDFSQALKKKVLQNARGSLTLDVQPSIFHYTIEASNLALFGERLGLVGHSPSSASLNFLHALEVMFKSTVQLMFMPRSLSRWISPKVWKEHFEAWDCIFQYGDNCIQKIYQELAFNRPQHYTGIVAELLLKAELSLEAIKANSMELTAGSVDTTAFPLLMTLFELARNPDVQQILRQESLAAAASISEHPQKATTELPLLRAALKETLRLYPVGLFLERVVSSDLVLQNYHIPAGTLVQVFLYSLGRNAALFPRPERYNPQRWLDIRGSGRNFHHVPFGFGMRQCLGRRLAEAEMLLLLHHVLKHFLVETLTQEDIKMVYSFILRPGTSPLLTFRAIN
human CYP11B1, sequence (P15538 25-503): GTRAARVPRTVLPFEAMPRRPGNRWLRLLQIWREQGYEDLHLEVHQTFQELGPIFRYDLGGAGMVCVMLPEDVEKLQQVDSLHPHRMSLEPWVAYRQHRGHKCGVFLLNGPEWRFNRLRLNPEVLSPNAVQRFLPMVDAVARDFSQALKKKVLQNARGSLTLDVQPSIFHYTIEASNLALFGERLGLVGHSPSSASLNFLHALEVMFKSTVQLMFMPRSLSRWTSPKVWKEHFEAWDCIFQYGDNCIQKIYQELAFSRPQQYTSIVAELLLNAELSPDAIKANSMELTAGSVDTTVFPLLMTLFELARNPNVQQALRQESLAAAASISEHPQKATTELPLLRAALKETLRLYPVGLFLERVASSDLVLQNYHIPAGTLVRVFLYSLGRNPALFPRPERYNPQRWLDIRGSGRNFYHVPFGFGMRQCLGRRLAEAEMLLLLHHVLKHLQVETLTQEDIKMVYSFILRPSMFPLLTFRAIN
CYP2D6, sequence (P10635 whole entry): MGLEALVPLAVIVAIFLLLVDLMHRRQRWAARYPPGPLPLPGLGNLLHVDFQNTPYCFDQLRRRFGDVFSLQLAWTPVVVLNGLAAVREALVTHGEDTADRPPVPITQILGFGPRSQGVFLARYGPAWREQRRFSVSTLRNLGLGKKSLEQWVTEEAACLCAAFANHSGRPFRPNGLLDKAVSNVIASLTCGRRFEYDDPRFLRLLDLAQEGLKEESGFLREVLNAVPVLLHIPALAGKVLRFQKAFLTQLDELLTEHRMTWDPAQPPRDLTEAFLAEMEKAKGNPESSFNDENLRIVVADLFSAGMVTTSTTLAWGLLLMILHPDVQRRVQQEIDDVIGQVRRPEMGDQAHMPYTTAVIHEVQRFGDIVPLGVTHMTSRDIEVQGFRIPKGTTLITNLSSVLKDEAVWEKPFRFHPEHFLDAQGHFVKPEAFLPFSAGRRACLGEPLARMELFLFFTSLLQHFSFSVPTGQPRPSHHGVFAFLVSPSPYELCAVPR
CYP1A2, sequence (P05177 whole entry): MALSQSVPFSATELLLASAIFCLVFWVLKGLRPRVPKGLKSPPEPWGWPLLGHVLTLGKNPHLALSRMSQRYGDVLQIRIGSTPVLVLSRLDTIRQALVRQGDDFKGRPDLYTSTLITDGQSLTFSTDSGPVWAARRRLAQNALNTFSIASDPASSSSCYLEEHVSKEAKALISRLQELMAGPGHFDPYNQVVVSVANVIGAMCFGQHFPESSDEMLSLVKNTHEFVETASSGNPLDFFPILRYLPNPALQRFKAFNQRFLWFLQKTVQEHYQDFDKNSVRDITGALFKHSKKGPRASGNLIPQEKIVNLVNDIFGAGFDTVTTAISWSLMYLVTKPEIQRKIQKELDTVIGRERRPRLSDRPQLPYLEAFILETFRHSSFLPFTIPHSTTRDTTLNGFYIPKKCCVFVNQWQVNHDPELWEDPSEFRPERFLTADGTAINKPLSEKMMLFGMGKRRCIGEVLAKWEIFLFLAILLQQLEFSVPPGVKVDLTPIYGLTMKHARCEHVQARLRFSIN
CYP2C19, sequence (P33261 whole entry): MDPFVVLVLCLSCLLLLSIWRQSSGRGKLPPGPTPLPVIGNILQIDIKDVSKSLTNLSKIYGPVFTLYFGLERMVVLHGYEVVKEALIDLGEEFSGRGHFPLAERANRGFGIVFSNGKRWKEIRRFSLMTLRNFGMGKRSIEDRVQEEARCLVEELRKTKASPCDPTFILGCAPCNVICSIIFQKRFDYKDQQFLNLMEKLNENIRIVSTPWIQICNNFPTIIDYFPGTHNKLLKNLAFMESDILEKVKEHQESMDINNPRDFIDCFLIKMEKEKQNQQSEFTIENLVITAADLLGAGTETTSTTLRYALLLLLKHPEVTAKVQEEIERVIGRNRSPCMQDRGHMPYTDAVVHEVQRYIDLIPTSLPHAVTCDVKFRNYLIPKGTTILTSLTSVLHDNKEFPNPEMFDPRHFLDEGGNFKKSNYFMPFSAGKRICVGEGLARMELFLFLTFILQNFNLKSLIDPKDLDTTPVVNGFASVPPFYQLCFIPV
CYP2C9, sequence (P11712 whole entry): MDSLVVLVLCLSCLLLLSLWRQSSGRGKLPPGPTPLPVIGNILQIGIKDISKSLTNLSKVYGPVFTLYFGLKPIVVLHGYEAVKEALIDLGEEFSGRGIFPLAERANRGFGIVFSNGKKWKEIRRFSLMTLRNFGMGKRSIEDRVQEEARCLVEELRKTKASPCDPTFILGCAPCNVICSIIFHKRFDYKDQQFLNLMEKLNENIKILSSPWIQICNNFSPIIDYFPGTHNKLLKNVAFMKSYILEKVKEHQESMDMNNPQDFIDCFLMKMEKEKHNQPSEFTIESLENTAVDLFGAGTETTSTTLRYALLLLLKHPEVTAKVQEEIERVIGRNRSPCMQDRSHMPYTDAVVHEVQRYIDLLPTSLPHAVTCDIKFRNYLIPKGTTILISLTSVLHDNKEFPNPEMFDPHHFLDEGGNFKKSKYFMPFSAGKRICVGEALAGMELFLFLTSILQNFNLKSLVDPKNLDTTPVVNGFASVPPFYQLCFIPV
CYP3A, sequence (P08684 2-503 limits assumed): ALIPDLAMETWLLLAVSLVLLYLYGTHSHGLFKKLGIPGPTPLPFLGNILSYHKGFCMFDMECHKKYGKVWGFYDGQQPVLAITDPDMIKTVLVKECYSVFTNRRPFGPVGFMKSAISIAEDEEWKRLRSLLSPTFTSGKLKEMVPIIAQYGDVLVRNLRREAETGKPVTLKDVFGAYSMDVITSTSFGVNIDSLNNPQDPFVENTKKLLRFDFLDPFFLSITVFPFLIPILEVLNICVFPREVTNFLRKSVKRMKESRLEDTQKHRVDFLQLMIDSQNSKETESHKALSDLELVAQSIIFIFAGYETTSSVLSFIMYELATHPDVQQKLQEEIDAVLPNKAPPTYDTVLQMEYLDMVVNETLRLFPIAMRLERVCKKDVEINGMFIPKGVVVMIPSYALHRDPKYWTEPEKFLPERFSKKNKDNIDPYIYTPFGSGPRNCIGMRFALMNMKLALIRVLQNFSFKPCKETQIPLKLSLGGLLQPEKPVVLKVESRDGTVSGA

[2H][C@@]1(NC(=O)N(C)C)CCOc2c(-c3cc4c(cc3F)N(C)C(=O)CC4)cncc21 [Example 7, (R)-3-(8-(7-Fluoro-1-methyl-2-oxo-1,2,3,4-tetrahydroquinolin-6-yl)-3,4-dihydro-2H-pyran[3,2-c]pyridin-4-yl-4-d)-1,1-dimethylurea]
IC50 (human CYP11B1): > 10 µM
IC50 (human CYP11B2): 0.172 µM
hCYP11B ½ Selectivity Fold (human CYP11B2): >58 Fold

CN(C)C(=O)N[C@@H]1CCOc2c(-c3ccc4c(c3)CCC(=O)N4C)cncc21 [Example 3, (R)-1,1-dimethyl-3-(8-(1-methyl-2-oxo-1,2,3,4-tetrahydroquinolin-6-yl)-3,4-dihydro-2H-pyran[3,2-c]pyridin-4-yl)urea]
IC50 (human CYP11B1): 5.25 µM
IC50 (human CYP11B2): 0.0611 µM
hCYP11B ½ Selectivity Fold (human CYP11B2): 85.95 Fold

[2H][C@@]1(NC(=O)CC)CCOc2c(-c3cc4c(cc3F)N(C)C(=O)CC4)cncc21 [Example 4, (R)-N-(8-(7-fluoro-1-methyl-2-oxo-1,2,3,4-tetrahydroquinolin-6-yl)-3,4-dihydro-2H-pyran[3,2-c]pyridin-4-yl-4-d)propanamide]
IC50 (human CYP11B1): 4.8 µM
IC50 (human CYP11B2): 0.0427 µM
hCYP11B ½ Selectivity Fold (human CYP11B2): 112.51 Fold

CCC(=O)N[C@@H]1CCOc2c(-c3cc4c(cc3F)N(C)C(=O)CC4)cncc21 [Example 8, (R)-N-(8-(7-Fluoro-1-methyl-2-oxo-1,2,3,4-tetrahydroquinolin-6-yl)-3,4-dihydro-2H-pyran[3,2-c]pyridin-4-yl)propanamide]
IC50 (CYP2D6): > 50 µM
effect on aldosterone synthesis (in words) (aldosterone synthesis): significantly inhibited aldosterone synthesis
Aldosterone Concentration in Plasma (aldosterone synthesis; 0.5 h): 557.64 pg/mL
Aldosterone Concentration in Plasma (aldosterone synthesis; 1 h (ACTH at +1 hour)): 350.13 pg/mL
Aldosterone Concentration in Plasma (aldosterone synthesis; 2 h): 139.86 pg/mL
Aldosterone Concentration in Plasma (aldosterone synthesis; 4 h): 81.71 pg/mL
Aldosterone Concentration in Plasma (aldosterone synthesis; 6 h): 84.08 pg/mL
Aldosterone Concentration in Plasma (aldosterone synthesis; 12 h): 91.38 pg/mL
Aldosterone Concentration in Plasma (aldosterone synthesis; Pre-dose): 421.96 pg/mL
IC50 at 10 min (CYP3A): > 50 µM
IC50 (CYP1A2): > 50 µM
Cmax [1]: 0.0227 µg/mL
Tmax [1]: 2 h
half-life [1]: 12.7 h
AUC(0-t) [1]: 0.332 µg·h/mL
Cmax and AUC relative to the reference Baxdrostat ([1]; same dose): three times as high
Cmax and AUC values relative to the compound of Example 2 ([1]; same dose (0.05mpk)): twice as high
IC50 (CYP2C9): > 50 µM
IC50 (human CYP11B1): 4.6 µM
IC50 (CYP2C19): > 50 µM
Cortisol Concentration in Plasma (cortisol levels; 0.5 h): 1590.4 pg/mL
Cortisol Concentration in Plasma (cortisol levels; 1 h (ACTH at +1 hour)): 1335.6 pg/mL
Cortisol Concentration in Plasma (cortisol levels; 2 h): 1990.5 pg/mL
Cortisol Concentration in Plasma (cortisol levels; 4 h): 818.4 pg/mL
Cortisol Concentration in Plasma (cortisol levels; 6 h): 410.8 pg/mL
Cortisol Concentration in Plasma (cortisol levels; 12 h): 487.5 pg/mL
Cortisol Concentration in Plasma (cortisol levels; Pre-dose): 831.6 pg/mL
IC50 (human CYP11B2): 0.0231 µM
hCYP11B ½ Selectivity Fold (human CYP11B2): 199 Fold
selectivity (in words) (human CYP11B2): better selectivity

[2H][C@@]1(NC(=O)CC)CCOc2c(-c3ccc4c(c3)CCC(=O)N4C)cncc21 [Example 2, (R)-N-(8-(1-methyl-2-oxo-1,2,3,4-tetrahydroquinolin-6-yl)-3,4-dihydro-2H-pyran[3,2-c]pyridin-4-yl-4-D)propanamide]
effect on aldosterone synthesis (in words) (aldosterone synthesis): no potent inhibition of aldosterone synthesis
Aldosterone Concentration in Plasma (aldosterone synthesis; 0.5 h): 1057.1 pg/mL
Aldosterone Concentration in Plasma (aldosterone synthesis; 1 h (ACTH at +1 hour)): 807.59 pg/mL
Aldosterone Concentration in Plasma (aldosterone synthesis; 2 h): 337.76 pg/mL
Aldosterone Concentration in Plasma (aldosterone synthesis; 4 h): 105.97 pg/mL
Aldosterone Concentration in Plasma (aldosterone synthesis; 6 h): 101.15 pg/mL
Aldosterone Concentration in Plasma (aldosterone synthesis; 12 h): 112.02 pg/mL
Aldosterone Concentration in Plasma (aldosterone synthesis; Pre-dose): 432.52 pg/mL
Cmax [1]: 0.0119 µg/mL
Tmax [1]: 2 h
half-life [1]: 9.7 h
AUC(0-t) [1]: 0.165 µg·h/mL
IC50 (human CYP11B1): 5.36 µM
Cortisol Concentration in Plasma (cortisol levels; 0.5 h): 1299.9 pg/mL
Cortisol Concentration in Plasma (cortisol levels; 1 h (ACTH at +1 hour)): 1178.3 pg/mL
Cortisol Concentration in Plasma (cortisol levels; 2 h): 1809.0 pg/mL
Cortisol Concentration in Plasma (cortisol levels; 4 h): 872.2 pg/mL
Cortisol Concentration in Plasma (cortisol levels; 6 h): 451.8 pg/mL
Cortisol Concentration in Plasma (cortisol levels; 12 h): 710.2 pg/mL
Cortisol Concentration in Plasma (cortisol levels; Pre-dose): 838.9 pg/mL
IC50 (human CYP11B2): 0.0371 µM
hCYP11B ½ Selectivity Fold (human CYP11B2): 144.47 Fold
selectivity (in words) (human CYP11B2): better selectivity

CN(C)C(=O)N[C@@H]1CCOc2c(-c3cc4c(cc3F)N(C)C(=O)CC4)cncc21 [Example 6, (R)-3-(8-(7-fluoro-1-methyl-2-oxo-1,2,3,4-tetrahydroquinolin-6-yl)-3,4-dihydro-2H-pyran[3,2-c]pyridin-4-yl)-1,1-dimethylurea]
IC50 (human CYP11B1): > 10 µM
IC50 (human CYP11B2): 0.0773 µM
hCYP11B ½ Selectivity Fold (human CYP11B2): >129.37 Fold
selectivity (in words) (human CYP11B2): better selectivity

[2H][C@@]1(NC(=O)N(C)C)CCOc2c(-c3ccc4c(c3)CCC(=O)N4C)cncc21 [Example 5, (R)-1,1-dimethyl-3-(8-(1-methyl-2-oxo-1,2,3,4-tetrahydroquinolin-6-yl)-3,4-dihydro-2H-pyran[3,2-c]pyridin-4-yl-4-d)urea]
IC50 (human CYP11B1): 3.38 µM
IC50 (human CYP11B2): 0.0496 µM
hCYP11B ½ Selectivity Fold (human CYP11B2): 68.19 Fold
